Measured values published in PubChem BioAssay (NCI).
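A five-concentration, 48-hour dose response in 96-well plates underlies each endpoint, interpolated linearly between surrounding concentrations. At the GI50, growth is halved. TGI denotes the concentration required for complete inhibition of growth.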

Assays:
Assay in all cases: NCI anticancer screen, dose series, 48 h
[1] = test system: SNB-19 CNS
[2] = test system: MCF7 breast
[3] = test system: MOLT-4 leukemia
[4] = test system: NCI-H226 lung
[5] = test system: UACC-257 melanoma
[6] = test system: 786-0 renal
[7] = test system: SF-268 CNS
[8] = test system: LOX IMVI melanoma
[9] = test system: SK-MEL-5 melanoma
[10] = test system: SN12C renal
[11] = test system: OVCAR-8 ovarian
[12] = test system: COLO 205 colon
[13] = test system: PC-3 prostate
[14] = test system: RPMI-8226 leukemia
[15] = test system: SF-539 CNS
[16] = test system: NCI-H23 lung
[17] = test system: T-47D breast
[18] = test system: SW-620 colon
[19] = test system: K-562 leukemia
[20] = test system: TK-10 renal
[21] = test system: MDA-MB-468 breast
[22] = test system: HCT-116 colon
[23] = test system: HOP-62 NSCLC
[24] = test system: KM12 colon
[25] = test system: MDA-MB-435
[26] = test system: HCC-2998 colon
[27] = test system: CCRF-CEM leukemia
[28] = test system: OVCAR-4 ovarian
[29] = test system: NCI-H460 lung
[30] = test system: SF-295 CNS
[31] = test system: CAKI-1 renal
[32] = test system: HCT-15 colon
[33] = test system: U251 CNS
[34] = test system: A498 renal
[35] = test system: HS 578T breast
[36] = test system: OVCAR-3 ovarian
[37] = test system: MDA-MB-231 breast
[38] = test system: EKVX NSCLC
[39] = test system: SK-MEL-2 melanoma
[40] = test system: HOP-92 NSCLC
[41] = test system: NCI/ADR-RES ovarian
[42] = test system: SNB-75 CNS
[43] = test system: SR leukemia
[44] = test system: ACHN renal
[45] = test system: NCI-H522 lung
[46] = test system: HT29 colon
[47] = test system: UO-31 renal
[48] = test system: M14 melanoma
[49] = test system: BT-549 breast
[50] = test system: OVCAR-5 ovarian
[51] = test system: SK-OV-3 ovarian
[52] = test system: SK-MEL-28 melanoma
[53] = test system: MALME-3M melanoma
[54] = test system: DU-145 prostate
[55] = test system: IGROV1 ovarian
[56] = test system: RXF 393 renal
[57] = test system: HL-60(TB) leukemia
[58] = test system: UACC-62 melanoma
[59] = test system: A549 NSCLC

O=C(N/N=C/c1ccoc1)c1[nH]c2ccc(Br)cc2c1-c1ccccc1 showed a GI50 [1] of 3.15 µM, a TGI [1] of 20 µM and a GI50 [2] of 210 nM. The TGI [2] was 12.7 µM, the GI50 [3] was 405 nM and the TGI [3] was 21 µM. For the same compound, the GI50 [4] was 3.04 µM, the TGI [4] was 16.2 µM and the GI50 [5] was 7.66 µM. For the same compound, the TGI [5] was 23.3 µM, the GI50 [6] was 665 nM and the TGI [6] was 14.4 µM. The GI50 [7] was 1200 nM, the TGI [7] was 14.5 µM and the GI50 [8] was 265 nM. It also gave a TGI [8] of 13.7 µM, a GI50 [9] of 295 nM and a TGI [9] of 1670 nM. It also gave a GI50 [10] of 485 nM, a TGI [10] of 12.1 µM and a GI50 [11] of 369 nM. The TGI [11] was 5.93 µM, the GI50 [12] was 430 nM and the TGI [12] was 3.14 µM. It also gave a GI50 [13] of 436 nM, a TGI [13] of 16 µM and a GI50 [14] of 360 nM. The TGI [14] was 33.2 µM, the GI50 [15] was 246 nM and the TGI [15] was 1080 nM. It also gave a GI50 [16] of 728 nM, a TGI [16] of 14.2 µM and a GI50 [17] of 3.77 µM. It also gave a TGI [17] of 32.5 µM, a GI50 [18] of 297 nM and a TGI [18] of 15.6 µM. The GI50 [19] was 197 nM, the TGI [19] was over 56.2 µM and the GI50 [20] was 7.96 µM. For the same compound, the TGI [20] was 24 µM, the GI50 [21] was 346 nM and the TGI [21] was 3.88 µM. It also gave a GI50 [22] of 166 nM, a TGI [22] of 11.1 µM and a GI50 [23] of 524 nM. For the same compound, the TGI [23] was 17.6 µM, the GI50 [24] was 461 nM and the TGI [24] was 13.5 µM. For the same compound, the GI50 [25] was 162 nM, the TGI [25] was 827 nM and the GI50 [26] was 755 nM. For the same compound, the TGI [26] was 11.6 µM, the GI50 [27] was 227 nM and the TGI [27] was 15.3 µM. For the same compound, the GI50 [28] was 5.23 µM, the TGI [28] was 20.9 µM and the GI50 [29] was 252 nM. For the same compound, the TGI [29] was 10.7 µM, the GI50 [30] was 289 nM and the TGI [30] was 13 µM. For the same compound, the GI50 [31] was 537 nM, the TGI [31] was 15.4 µM and the GI50 [32] was 328 nM. The TGI [32] was 11.9 µM, the GI50 [33] was 1160 nM and the TGI [33] was 15.6 µM. It also gave a GI50 [34] of 15.6 µM, a TGI [34] of 30.2 µM and a GI50 [35] of 279 nM. The TGI [35] was 13 µM, the GI50 [36] was 257 nM and the TGI [36] was 11.5 µM. The GI50 [37] was 906 nM, the TGI [37] was 12.3 µM and the GI50 [38] was 1030 nM. It also gave a TGI [38] of 13.6 µM, a GI50 [39] of 954 nM and a TGI [39] of 16.4 µM. The GI50 [40] was 989 nM, the TGI [40] was 13.3 µM and the GI50 [41] was 231 nM. For the same compound, the TGI [41] was 1310 nM, the GI50 [42] was 299 nM and the TGI [42] was 13.2 µM. It also gave a GI50 [43] of 492 nM, a TGI [43] of 36.9 µM and a GI50 [44] of 790 nM. For the same compound, the TGI [44] was 14.4 µM, the GI50 [45] was 208 nM and the TGI [45] was 1000 nM. The GI50 [46] was 329 nM, the TGI [46] was 2920 nM and the GI50 [47] was 1010 nM. For the same compound, the TGI [47] was 15.2 µM, the GI50 [48] was 226 nM and the TGI [48] was 14.7 µM. For the same compound, the GI50 [49] was 416 nM, the TGI [49] was 3.12 µM and the GI50 [50] was 745 nM. It also gave a TGI [50] of 14.6 µM, a GI50 [51] of 3.54 µM and a TGI [51] of 18.4 µM. It also gave a GI50 [52] of 2750 nM, a TGI [52] of 19.9 µM and a GI50 [53] of 5.25 µM. It also gave a TGI [53] of 21.4 µM, a GI50 [54] of 568 nM and a TGI [54] of 12.4 µM. For the same compound, the GI50 [55] was 1250 nM, the TGI [55] was 13 µM and the GI50 [56] was 455 nM. The TGI [56] was 19.8 µM, the GI50 [57] was 205 nM and the TGI [57] was 852 nM. It also gave a GI50 [58] of 355 nM, a TGI [58] of 15.8 µM and a GI50 [59] of 1130 nM. It also gave a TGI [59] of 14.7 µM.
